Results reported in patent US9840509B2, “Heterocyclic compounds” (CADILA HEALTHCARE LIMITED, priority 2014, dated 2017).

Assays:
CYP 1A2 = biological target: T1, CYP 1A2 (Homo sapiens, UniProt P05177); assay: CYP inhibition in human liver microsomes, 1A2; type: in vitro ADME; settings: pH 7.4, @ 10 μM concn
T1 construct: from tissue; host or cells: human liver microsomes
T1 sequence (P05177 1-516): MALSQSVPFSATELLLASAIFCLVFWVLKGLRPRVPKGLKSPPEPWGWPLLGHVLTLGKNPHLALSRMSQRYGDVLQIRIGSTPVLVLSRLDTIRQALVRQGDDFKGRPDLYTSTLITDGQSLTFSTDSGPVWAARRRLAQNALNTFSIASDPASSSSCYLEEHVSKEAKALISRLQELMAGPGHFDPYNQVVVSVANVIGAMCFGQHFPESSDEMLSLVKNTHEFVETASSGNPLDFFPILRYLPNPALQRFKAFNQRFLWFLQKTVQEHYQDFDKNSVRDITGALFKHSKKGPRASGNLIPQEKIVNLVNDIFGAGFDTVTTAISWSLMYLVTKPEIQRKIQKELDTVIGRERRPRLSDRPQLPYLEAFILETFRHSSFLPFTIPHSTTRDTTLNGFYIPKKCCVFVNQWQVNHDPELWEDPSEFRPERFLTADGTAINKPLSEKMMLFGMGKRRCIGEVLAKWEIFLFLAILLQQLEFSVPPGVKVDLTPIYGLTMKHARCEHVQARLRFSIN
Summary of the method: (§1)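 Test compounds at […] and 10 μM were incubated in duplicate with human liver microsomes, probe substrate and 1 mM NADPH in 100 mM phosphate buffer pH 7.4 at 37° C. Reactions were stopped with acetonitrile containing internal standard, and the marker-reaction metabolite was quantified by LC-MS/MS.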

SCW Arthritis Model = assay: SCW Arthritis model (PGPS-induced paw swelling); type: in vivo, Female Sprague dawley (SD) rats; settings: Dose: 10 mpk, po, rats, Mean ± SD, n = 8
Method: All the animal experiments were carried out in female rats and mice, bred in-house. Animals were housed in groups of 6 animals per cage, for a week, in order to habituate them to vivarium conditions (25±4° C., 60-65% relative humidity, 12: 12 h light: dark cycle, with lights on at 7.30 am). All the animal experiments were carried out according to the internationally valid guidelines following approval by the ‘Zydus Research Center animal ethical committee’. SCW Arthritis Female Sprague dawley (SD) rats were primed with an intra-articular injection of 20 μl of peptidoglycan polysaccharide (PGPS), at 0.5 mg/ml of rhamnose in the right ankle. At 2 weeks the paw swelling were measured using a plethysmometer and rats assigned to groups based on initial paw swelling. On day 14 after model initiation, rats were dosed orally (po) with the test compounds. Following the dose administration, 1 h later, the rats received a booster dose of 0.5 ml of PGPS (0.5 mg/ml of rhamnose) via i.v. injection using their tail vein. Compounds were dosed for the following two more days and their paw volumes were measured for 3 more days. The efficacy of the compound was determined as percentage inhibition of paw swelling verses the control (untreated) group.

TMD-8 cells = assay: Diffused large B cell lymphoma xenografts using TMD-8 cell line; type: in vivo, Female SCID mice; settings: Dose: 10 mpk, po, SCID mice, Mean ± SD, n = 8
Method: All the animal experiments were carried out in female rats and mice, bred in-house. Animals were housed in groups of 6 animals per cage, for a week, in order to habituate them to vivarium conditions (25±4° C., 60-65% relative humidity, 12: 12 h light: dark cycle, with lights on at 7.30 am). All the animal experiments were carried out according to the internationally valid guidelines following approval by the ‘Zydus Research Center animal ethical committee’.
Diffused Large B Cell Lymphoma Xenografts Using TMD-8 Cell Line
Female SCID mice were inoculated sc with 10×10^6 TMD-8 cells in 0.1 mL of PBS to the right flank. Animals were observed twice weekly for occurrence of tumor. Once the tumors became palpable (around 100 mm^3) around 14 days after injection, treatment was initiated via oral route. Tumor volume was determined every alternate day using digital calipers and the tumor volume was calculated using the formula: [length/2]×[width^2]. Body weights of the animals were also recorded 3 times a week as a measure of treatment related side effect. Treatment was continued for two more weeks and inhibition of tumor volume compared to vehicle control was considered as efficacy endpoint.

CYP 2C9 = biological target: T2, CYP 2C9 (Homo sapiens, UniProt P11712); assay: CYP inhibition in human liver microsomes, 2C9; type: in vitro ADME; settings: pH 7.4, @ 10 μM concn
T2 construct: from tissue; host or cells: human liver microsomes
Summary of the method: as §1

CYP 2C19 = biological target: T3, CYP 2C19 (Homo sapiens, UniProt P33261); assay: CYP inhibition in human liver microsomes, 2C19; type: in vitro ADME; settings: pH 7.4, @ 10 μM concn
T3 construct: from tissue; host or cells: human liver microsomes
Summary of the method: as §1

T3 sequence (P33261 whole entry): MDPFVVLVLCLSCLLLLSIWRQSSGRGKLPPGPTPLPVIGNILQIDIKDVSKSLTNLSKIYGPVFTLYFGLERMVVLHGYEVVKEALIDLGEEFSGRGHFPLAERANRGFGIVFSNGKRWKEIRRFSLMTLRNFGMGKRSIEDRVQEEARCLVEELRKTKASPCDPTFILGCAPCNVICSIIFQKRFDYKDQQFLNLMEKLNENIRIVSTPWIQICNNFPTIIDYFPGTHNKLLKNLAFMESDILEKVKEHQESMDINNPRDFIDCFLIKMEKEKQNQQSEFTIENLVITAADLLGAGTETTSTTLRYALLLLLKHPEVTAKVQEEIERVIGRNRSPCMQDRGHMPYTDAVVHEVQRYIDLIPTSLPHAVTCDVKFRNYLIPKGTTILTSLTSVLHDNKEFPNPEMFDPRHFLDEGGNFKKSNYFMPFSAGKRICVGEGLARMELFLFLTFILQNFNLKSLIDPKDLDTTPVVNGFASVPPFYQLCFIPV
T2 sequence (P11712 whole entry): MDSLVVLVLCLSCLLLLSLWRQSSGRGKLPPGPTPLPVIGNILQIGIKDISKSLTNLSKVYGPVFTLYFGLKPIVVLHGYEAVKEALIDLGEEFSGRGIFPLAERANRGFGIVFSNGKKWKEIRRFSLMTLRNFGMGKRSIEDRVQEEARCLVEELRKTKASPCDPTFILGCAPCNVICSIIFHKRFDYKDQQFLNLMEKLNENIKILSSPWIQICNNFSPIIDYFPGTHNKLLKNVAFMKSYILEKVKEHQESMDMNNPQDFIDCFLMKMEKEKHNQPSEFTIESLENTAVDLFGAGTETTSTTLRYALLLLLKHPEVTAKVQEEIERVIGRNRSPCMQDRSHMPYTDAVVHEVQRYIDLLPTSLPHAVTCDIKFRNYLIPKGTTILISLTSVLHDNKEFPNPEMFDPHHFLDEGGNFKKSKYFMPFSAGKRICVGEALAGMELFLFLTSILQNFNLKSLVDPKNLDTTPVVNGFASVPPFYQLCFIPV

SMILES | inhibition at 10 μM (CYP 1A2) | % inhibition of paw inflammation, Day-16, in SCW Arthritis Model (SCW Arthritis Model) | % Inhibition in tumor volume, Day-16, in TMD-8 Xenografts Model (TMD-8 cells) | inhibition at 10 μM (CYP 2C9) | inhibition at 10 μM (CYP 2C19)
C=CC(=O)N1CC2CC(N3C(=O)N(c4ccc(Oc5ccccc5)cc4)C4C(N)=NC=NC43)CC2C1 (stereo not shown) [Compound 25, 9-(2-acryloyloctahydrocyclopenta[c]pyrrol-5-yl)-6-amino-7-(4-phenoxyphenyl)-5,7-dihydro-4H-purin-8(9H)-one] | < 50% | 69.6 ± 12.7% | 50.2 ± 10.1% | < 50% | < 50%
C=CC(=O)N1CC2CC(n3nc(-c4ccc(NC(=O)c5ccccn5)cc4)c4c(N)ncnc43)CC2C1 (stereo not shown) [Compound 32, N-(4-(1-(2-acryloyloctahydrocyclopenta[c]pyrrol-5-yl)-4-amino-1H-pyrazolo[3,4-d]pyrimidin-3-yl)phenyl)picolinamide] | < 50% | 75.3 ± 6.2% | 56.1 ± 8.2% | < 50% | < 50%
C=CC(=O)N1CC2CC(n3nc(-c4ccc(C(=O)Nc5cc(C)ccn5)cn4)c4c(N)ncnc43)CC2C1 (stereo not shown) [Compound 42, 6-(1-(2-acryloyloctahydrocyclopenta[c]pyrrol-5-yl)-4-amino-1H-pyrazolo[3,4-d]pyrimidin-3-yl)-N-(4-methylpyridin-2-yl)nicotinamide] | < 50% | 51.3 ± 9.7% | 62.2 ± 8.8% | < 50% | < 50%
C=CC(=O)N1CC2CC(n3nc(-c4ccc(-c5nnc(-c6cnccn6)s5)cc4)c4c(N)ncnc43)CC2C1 (stereo not shown) [Compound 46, 1-(5-(4-amino-3-(4-(5-(pyrazin-2-yl)-1,3,4-thiadiazol-2-yl)phenyl)-1H-pyrazolo[3,4-d]pyrimidin-1-yl)hexahydrocyclopenta[c]pyrrol-2(1H)-yl)prop-2-en-1-one] | < 50% | 81.8 ± 11.2% | 54.3 ± 9.1% | < 50% | < 50%
C=CC(=O)N1CC2CC(n3nc(-c4ccc(C(=O)N(C)c5cc(C)ccn5)cc4)c4c(N)ncnc43)CC2C1 (stereo not shown) [Compound 54, 4-(1-(2-acryloyloctahydrocyclopenta[c]pyrrol-5-yl)-4-amino-1H-pyrazolo[3,4-d]pyrimidin-3-yl)-N-methyl-N-(4-methylpyridin-2-yl)benzamide] | < 50% | 89.2 ± 10.3% | 92.1 ± 13.1% | < 50% | < 50%
